Laboratory results taken from patent publication US9067905B2, “Sulphone compounds and methods of making and using same” (Zafgen, Inc., priority 2009, dated 2015).
pIC50: −log10 of the molar value. Where a name gives a salt, the structure may show the parent alone.

Biological target: T1, recombinant human MetAP2 (Homo sapiens, UniProt P50579)
T1 construct: Flag; made in house; host or cells: Sf9 insect cells
Assay: Inhibition of recombinant human MetAP2 activity (Amplex red fluorescence assay)
Assay type: biochemical
Conditions: manganese Flag-MetAP2, 0.75 mM Methionine-Alanine-Serine substrate, 30 minutes at 25° C., pH 7.5, 1% DMSO
Protocol: Compounds are tested for their capacity to inhibit recombinant human MetAP2 activity using the following assay.
Human recombinant Flag-MetAP2 expressed in Sf9 cells followed by affinity purification and EDTA treatment to remove endogenous active site cation is dialysed against MnCl2 to produce the manganese enzyme used in the assay. The assay is carried out for 30 minutes at 25° C. in 50 mM HEPES buffer containing 100 mM NaCl, pH 7.5 the presence of 0.75 mM Methionine-Alanine-Serine (MAS) substrate and 50 μg/ml amino acid oxidase using a dilution of purified MetAP2 giving approximately 50,000 RFU control activity. Cleavage of the substrate by MetAP2 and oxidation of free methionine by amino acid oxidase is detected and quantified using fluorescence generated by Amplex red (10-acetyl-3,7-dihydroxyphenoxazine) in combination with horseradish peroxidase which detects H2O2 released during the oxidation step. The fluorescent signal is detected using a multiwell fluorimeter. Compounds are diluted in DMSO prior to addition to assay buffer, the final DMSO concentration in the assay being 1%.
The IC50 is defined as the concentration at which a given compound achieves 50% inhibition of control. IC50 values are calculated using the XLfit software package (version 2.0.5).

T1 sequence (P50579 whole entry): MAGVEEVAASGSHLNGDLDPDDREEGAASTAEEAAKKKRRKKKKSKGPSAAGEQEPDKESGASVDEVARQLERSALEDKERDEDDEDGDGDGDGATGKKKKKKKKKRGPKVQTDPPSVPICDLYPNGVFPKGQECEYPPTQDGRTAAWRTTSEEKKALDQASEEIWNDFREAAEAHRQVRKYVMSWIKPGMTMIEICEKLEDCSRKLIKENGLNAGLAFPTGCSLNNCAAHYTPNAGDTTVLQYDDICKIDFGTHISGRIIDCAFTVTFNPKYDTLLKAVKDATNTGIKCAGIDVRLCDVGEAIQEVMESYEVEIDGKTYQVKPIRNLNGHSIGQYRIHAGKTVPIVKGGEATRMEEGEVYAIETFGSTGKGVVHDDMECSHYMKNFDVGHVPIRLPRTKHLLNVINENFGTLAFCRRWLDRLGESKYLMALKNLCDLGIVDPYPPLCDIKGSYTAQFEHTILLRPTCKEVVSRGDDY

SMILES	pIC50
COc1c(Br)ccc(CS(=O)(=O)c2ccccc2)c1C(=O)O [6-(Benzenesulphonylmethyl)-3-bromo-2-methoxybenzoic acid]	5.70 to 6.70
CCc1ccc(CS(=O)(=O)c2ccccc2)c(C(=O)O)c1 [2-(Benzenesulphonylmethyl)-5-ethylbenzoic acid]	5.70 to 6.70
COc1cccc(CS(=O)(=O)c2ccccc2C)c1C(=O)O [2-Methoxy-6-(2-methylbenzenesulphonylmethyl)benzoic acid]	< 5.70
COc1c(-c2ccoc2)ccc(CS(=O)(=O)C2CCCCC2)c1C(=O)O [6-(Cyclohexanesulphonylmethyl)-3-(furan-3-yl)-2-methoxybenzoic acid]	5.70 to 6.70
CN=S(=O)(Cc1ccc(-c2ccoc2)c(OC)c1C(=O)O)c1ccccc1 (centres unmarked) [3-(Furan-3-yl)-2-methoxy-6-[(N-methyl-S-phenylsulphonimidoyl)methyl]benzoic acid]	5.70 to 6.70
COc1c(-c2ccoc2)ccc(CS(=N)(=O)c2ccccc2)c1C(=O)O (centres unmarked) [3-(Furan-3-yl)-2-methoxy-6-[(S-phenylsulphonimidoyl)methyl]benzoic acid]	5.70 to 6.70
COc1cccc(S(=O)(=O)Cc2ccc(-c3ccoc3)c(OC)c2C(=O)O)c1 [3-(Furan-3-yl)-6-(3-methoxybenzenesulphonylmethyl)-2-methoxybenzoic acid]	< 5.70
COc1c(-c2cncs2)ccc(CS(=O)(=O)c2ccccc2)c1C(=O)O [6-(Benzenesulphonylmethyl)-2-methoxy-3-(thiazol-5-yl)benzoic acid]	5.70 to 6.70
COc1c(-c2cccnc2)ccc(CS(=O)(=O)c2ccccc2)c1C(=O)O [6-(Benzenesulphonylmethyl)-2-methoxy-3-(3-pyridyl)benzoic acid]	< 5.70
O=C(O)c1c(CS(=O)(=O)c2ccccc2)ccc2ccccc12 [2-(Benzenesulphonylmethyl)naphthalene-1-carboxylic acid]	5.70 to 6.70
O=C(O)c1c(CS(=O)(=O)c2ccccc2)ccc(-c2ccoc2)c1OC1CNC1 [2-(Azetidin-3-yloxy)-6-(benzenesulphonylmethyl)-3-(furan-3-yl)-benzoic acid hydrochloride]	< 5.70
COc1ccccc1S(=O)(=O)Cc1ccc(-c2ccoc2)c(OCCN)c1C(=O)O [2-(2-Aminoethoxy)-3-(furan-3-yl)-6-(2-methoxybenzenesulphonyl-methyl)benzoic acid hydrochloride]	5.70 to 6.70
CCc1ccc(CS(=O)(=O)c2ccc(Cl)cc2)c(C(=O)O)c1OC [6-(4-Chlorobenzenesulphonylmethyl)-3-ethyl-2-methoxy-benzoic acid]	< 5.70
CCN(CC)CCOc1ccccc1S(=O)(=O)Cc1ccc(-c2ccoc2)c(OC)c1C(=O)O [6-[2-(2-Diethylaminoethoxy)benzenesulphonylmethyl]-3-(furan-3-yl)-2-methoxybenzoic acid]	< 5.70
COc1c(-c2ccoc2)ccc(CS(=O)(=O)N2C3CCCC2CC3)c1C(=O)O [6-(8-Azabicyclo[3.2.1]octane-8-ylsulphonylmethyl)-3-(furan-3-yl)-2-methoxybenzoic acid]	< 5.70
COc1c(-c2cnco2)ccc(CS(=O)(=O)c2ccccc2)c1C(=O)O [6-(Benzenesulphonylmethyl)-2-methoxy-3-(oxazol-5-yl)benzoic acid]	5.70 to 6.70
COc1c(-c2ccoc2)ccc(CS(=O)(=O)N2CCC(O)C2)c1C(=O)O (centres unmarked) [3-(Furan-3-yl)-6-(3-hydroxypyrrolidine-1-ylsulphonylmethyl)-2-methoxybenzoic acid]	5.70 to 6.70
O=C(O)c1cc(-c2ccoc2)ccc1CS(=O)(=O)c1ccccc1 [2-(Benzenesulphonylmethyl)-5-(furan-3-yl)benzoic acid]	5.70 to 6.70
CCN(CC)C/C=C/c1ccccc1S(=O)(=O)Cc1ccc(-c2ccoc2)c(OC)c1C(=O)O [(E)-6-((2-(3-(diethylamino)prop-1-enyl)benzenesulfonyl)methyl)-3-(furan-3-yl)-2-methoxybenzoic acid]	5.70 to 6.70
COc1c(-c2ccoc2)ccc(CS(=O)(=O)c2cccnc2)c1C(=O)O [3-(Furan-3-yl)-2-methoxy-6-(pyridin-3-ylsulphonylmethyl)benzoic acid]	5.70 to 6.70
COc1c(-c2ccoc2)ccc(CS(=O)(=O)N2CCCC2)c1C(=O)O [3-(Furan-3-yl)-2-methoxy-6-(pyrrolidin-1-ylsulphonylmethyl)-benzoic acid]	5.70 to 6.70
COc1c(-c2ccoc2)ccc(CS(=O)(=O)c2ccccc2C)c1C(=O)O [3-(Furan-3-yl)-2-methoxy-6-(2-methyl-benzenesulphonylmethyl)benzoic acid]	5.70 to 6.70
CCOc1c(-c2ccoc2)ccc(CS(=O)(=O)c2ccccc2)c1C(=O)O [6-(Benzenesulphonylmethyl)-2-ethoxy-3-(furan-3-yl)benzoic acid]	5.70 to 6.70
CC(N)COc1c(-c2ccoc2)ccc(CS(=O)(=O)c2ccccc2)c1C(=O)O (centres unmarked) [2-(2-Aminopropoxy)-6-(benzenesulphonylmethyl)-3-(furan-3-yl)-benzoic acid hydrochloride]	< 5.70
COc1c(-c2ccoc2)ccc(CS(=O)(=O)c2cccc(O)c2)c1C(=O)O [3-(Furan-3-yl)-6-(3-hydroxybenzenesulphonylmethyl)-2-methoxy-benzoic acid]	5.70 to 6.70
O=C(O)c1cc(-c2cnco2)ccc1CS(=O)(=O)c1ccccc1 [2-(Benzenesulphonylmethyl)-5-(oxazol-5-yl)benzoic acid]	< 5.70
COc1c(-c2nccs2)ccc(CS(=O)(=O)c2ccccc2)c1C(=O)O [6-(Benzenesulphonylmethyl)-2-methoxy-3-(thiazol-2-yl)benzoic acid]	< 5.70
CCc1ccc(CS(=O)(=O)c2ccccc2)c(C(=O)O)c1-c1ccnn1C [6-(Benzenesulphonylmethyl)-3-ethyl-2-(2-methyl-2H-pyrazol-3-yl)-benzoic acid]	< 5.70
COc1c(-c2cocn2)ccc(CS(=O)(=O)c2ccccc2)c1C(=O)O [6-(Benzenesulphonylmethyl)-3-(oxazol-4-yl)-2-methoxybenzoic acid]	< 5.70
COc1cc(CS(=O)(=O)c2ccccc2)c(C(=O)O)c(OC)c1-c1ccoc1 [6-(Benzenesulphonylmethyl)-3-(furan-3-yl)-2,4-dimethoxybenzoic acid]	5.70 to 6.70

The next lines start with the values.

pIC50	SMILES
> 6.70	COc1c(-c2ccoc2)ccc(CS(=O)(=O)c2ccccc2)c1C(=O)O [6-(Benzenesulphonylmethyl)-3-(furan-3-yl)-2-methoxy-benzoic acid]
> 6.70	CNc1c(-c2ccoc2)ccc(CS(=O)(=O)c2ccccc2)c1C(=O)O [6-(Benzenesulphonylmethyl)-3-(furan-3-yl)-2-methylamino benzoic acid]
> 6.70	NCCOc1c(-c2ccoc2)ccc(CS(=O)(=O)c2ccc(F)cc2)c1C(=O)O [2-(2-Aminoethoxy)-6-(4-fluorobenzenesulphonylmethyl)-3-(furan-3-yl)benzoic acid hydrochloride]
> 6.70	N#CCNc1c(-c2ccoc2)ccc(CS(=O)(=O)c2ccccc2)c1C(=O)O [6-(Benzenesulphonylmethyl)-2-(cyanomethylamino)-3-(furan-3-yl)benzoic acid]
> 6.70	COc1c(-c2ccoc2)ccc(CS(=O)(=NC#N)c2ccccc2)c1C(=O)O (centres unmarked) [6-[(N-cyano-S-phenylsulphonimidoyl)methyl]-3-(furan-3-yl)-2-methoxybenzoic acid]
> 6.70	CCc1ccc(CS(=O)(=O)c2ccccc2)c(C(=O)O)c1OCCN [2-(2-Aminoethoxy)-3-ethyl-6-benzenesulphonylmethylbenzoic acid hydrochloride]
> 6.70	CCN(CC)C/C=C\c1ccccc1S(=O)(=O)Cc1ccc(-c2ccoc2)c(OC)c1C(=O)O [(Z)-6-((2-(3-(Diethylamino)prop-1-enyl)benzenesulfonyl)methyl)-3-(furan-3-yl)-2-methoxybenzoic acid]
> 6.70	COc1c(-c2ccoc2)ccc(CS(=O)(=O)c2cccc(F)c2)c1C(=O)O [6-(3-Fluorobenzenesulphonylmethyl)-3-(furan-3-yl)-2-methoxybenzoic acid]
> 6.70	COc1c(-c2ccoc2)ccc(CS(=O)(=O)N2CCCCC2)c1C(=O)O [3-(Furan-3-yl)-2-methoxy-6-(piperidine-1-ylsulphonylmethyl)benzoic acid]
> 6.70	COc1c(-c2ccoc2)ccc(CS(=O)(=O)c2cccc(Cl)c2)c1C(=O)O [6-(3-Chlorobenzenesulphonylmethyl)-3-(furan-3-yl)-2-methoxybenzoic acid]
> 6.70	CCN(CC)CCCc1ccccc1S(=O)(=O)Cc1ccc(-c2ccoc2)c(OC)c1C(=O)O [6-[2-(3-Diethylaminopropyl)benzenesulphonylmethyl]-3-(furan-3-yl)-2-methoxybenzoic acid]
> 6.70	CCN(CC)C/C=C\c1cc(F)ccc1S(=O)(=O)Cc1ccc(-c2ccoc2)c(OC)c1C(=O)O [(Z)-6-((2-(3-(Diethylamino)prop-1-enyl)-4-fluorophenylsulfonyl)methyl)-3-(furan-3-yl)-2-methoxybenzoic acid]
> 6.70	NCCOc1c(-c2ccoc2)ccc(CS(=O)(=O)c2ccccc2)c1C(=O)O [2-(2-Aminoethoxy)-6-(benzenesulphonylmethyl)-3-(furan-3-yl)benzoic acid hydrochloride]
> 6.70	O=C(O)c1c(CS(=O)(=O)c2ccccc2)ccc(-c2ccoc2)c1OCCO [6-(Benzenesulphonylmethyl)-3-(furan-3-yl)-2-(2-hydroxyethoxy)benzoic acid]
